2 compounds from US20240400582A1, “FOUR-MEMBERED FUSED RING COMPOUND AND PREPARATION METHOD AND USE THEREOF” (JIANGSU HANSOH PHARMACEUTICAL GROUP CO., LTD., priority 2021, published 2024) can be followed below.

Molecules are shown by their SMILES.

One assay concerns the target ABL1 WT kinase (Homo sapiens (Human), UniProt P00519). The assay can be described thus: In vitro enzymatic inhibitory activity against ABL1 WT kinase (capillary electrophoresis, EZ reader). The class given is biochemical. The following applies: maximum concentration 1 μM. As to the method:
Capillary electrophoresis was used to detect the phosphorylation conversion rate of the substrate peptide to determine the IC50 value of the test compound for inhibiting the kinase (ABL1-WT). The maximum concentration of the compound tested in the test was 1000 nM, with 3-fold dilution, and a total of 12 concentrations (1000-0.0056 nM). First, an enzyme reaction system (the concentration of enzyme ABL1-WT was 1.3 nM, the concentration of substrate FLPeptide2 was 1.5 μM, and the reaction factor was 10 mM MgCl2) was prepared. After incubation at room temperature for 30 min, […] of 4×ATP solution was added to start the enzyme reaction. After reacting at room temperature for 90 min, the reaction was stopped by adding a stop buffer (containing 0.5 M EDTA). The sample was analyzed using an EZ reader (analysis conditions: pressure −1.5 PSI, upper voltage current −2250V, lower voltage current −500V, separation time 40 sec, and system delay 100.0 sec).
From the conversion rate read by EZ Reader, the remaining activity was calculated according to the following formula.
IC50 was calculated using XLfit, and IC50 was calculated by Formula 201 as the fitting formula.

The next assay relates to Ba/F3 BCR-ABL1-T315I. The assay can be described thus: Inhibition of proliferation of Ba/F3 BCR-ABL1-T315I cells (CellTiter-Glo). The following applies: Mus musculus, BaF3, 72 h. The format is cell-based. An excerpt: (§1) To evaluate the inhibitory activity of the compound of the present invention against proliferation of the Ba/F3 BCR-ABL1-T315I, Ba/F3 BCR-ABL1-E255K, Ba/F3 BCR-ABL1-E255V, and Ba/F3 BCR-ABL1-G250E mutation models of mouse primary B cells cultured in vitro.
(§2) CellTiter-Glo® Luminescent Cell Viability Assay was used to detect the inhibitory effect of drugs on tumor cell proliferation and growth. The logarithmic growth phase cells cultured overnight were directly taken, blown, mixed and counted, the cell density was adjusted according to different cell density requirements, and the cells were prepared into a cell suspension and plated on a 96-well plate. Drugs at different concentrations were added, 3 replicate wells were set for each concentration, and corresponding vehicle controls were eset. […] The maximum concentration of the compounds detected in other cells was 500 nM, with 3.16-fold gradient dilution, and a total of 9 concentrations (500-0.0503 nM). […] The culture plate and its contents were equilibrated to room temperature, the CellTiter-Glo® reagent was added, the contents were mixed on a shaker for 5 min to induce cell lysis, the culture plate was further incubated at room temperature in the dark for 20 min, and the luminescence was read with a microplate reader.
In general terms: ATP-based viability assays read luminescence as a measure of living cells.

Another assay concerns Ba/F3 BCR-ABL1-E255V. The assay is described as follows: Inhibition of proliferation of Ba/F3 BCR-ABL1-E255V cells (CellTiter-Glo). The following applies: Mus musculus, BaF3, 72 h. The class given is cell-based.
From the text: as §1, §2

In a further assay the test system is Ba/F3 BCR-ABL1-E255K. The assay is described as follows: Inhibition of proliferation of Ba/F3 BCR-ABL1-E255K cells (CellTiter-Glo). The class given is cell-based. The following applies: Mus musculus, BaF3, 72 h.
From the text: as §1, §2

For a further assay, the system named is Ba/F3 BCR-ABL1-G250E. The assay is described as follows: Inhibition of proliferation of Ba/F3 BCR-ABL1-G250E cells (CellTiter-Glo). The format is cell-based. The following applies: Mus musculus, BaF3, 72 h.
From the text: as §1, §2

For another assay, the system named is K562. The assay is described as follows: Inhibition of proliferation of K562 cells (CellTiter-Glo). The settings on record: Homo sapiens, 72 h. The class given is cell-based. From the text: (§3) To evaluate the inhibitory activity of the compounds of the present invention against proliferation of human erythroleukemia cells K562, human peripheral blood basophilic leukemia cells Ku812, and human chronic myelogenous leukemia cells KCL22-s and KCL22-r cultured in vitro.
(§4) CellTiter-Glo® Luminescent Cell Viability Assay was used to detect the inhibitory effect of drugs on tumor cell proliferation and growth. The logarithmic growth phase cells cultured overnight were directly taken, blown, mixed and counted, the cell density was adjusted according to different cell density requirements, and the cells were prepared into a cell suspension and plated on a 96-well plate. Drugs at different concentrations were added, three replicate wells were set for each concentration, and corresponding solvent controls were set. The maximum concentration of compound detected was 500 nM, with 3-fold gradient dilution, and a total of 9 concentrations (500-0.076 nM). […] The culture plate and its contents were equilibrated to room temperature, the CellTiter-Glo® reagent was added, the contents were mixed on a shaker for 3 min to induce cell lysis, the culture plate was further incubated at room temperature in the dark for 10 min, and the chemiluminescence signal value was determined by a microplate reader (BioTek SynergyH1).

In a further assay the test system is Ku812. The assay can be described thus: Inhibition of proliferation of Ku812 cells (CellTiter-Glo). The format is cell-based. The following applies: Homo sapiens, 72 h.
From the text: as §3, §4

In a further assay the test system is KCL22-s. The assay can be described thus: Inhibition of proliferation of KCL22-s cells (CellTiter-Glo). The format is cell-based. The following applies: Homo sapiens, 72 h, imatinib-sensitive strain.
From the text: as §3, §4

For another assay, the system named is KCL22-r. The assay can be described thus: Inhibition of proliferation of KCL22-r cells (CellTiter-Glo). The class given is cell-based. The following applies: Homo sapiens, 72 h, imatinib-resistant strain.
From the text: as §3, §4

Assay [1] concerns human chronic myeloid leukemia cell line KCL22-s xenograft tumor. The assay can be described thus: Anti-tumor efficacy in KCL22-s subcutaneous xenograft tumor model. The format is in vivo, BALB/c nude mouse. The following applies: oral, dosing cycle 15 days. As for the experimental part:
To evaluate the efficacy of the test compound on the human chronic myeloid leukemia cell strain KCL22-s in the BALB/c nude mouse subcutaneous xenograft tumor model.
BALB/c nude mice, 8-10 weeks.
The resuscitated cells were placed in a cell culture flask (the cell type, date, name of the person for culture and so on were marked on the flask wall) and then placed in a CO2 incubator (the incubator temperature was 37° C. and the CO2 concentration was 5%) for incubation. • b, The cells were passaged. After passage, the cells continued to be cultured in the CO2 incubator. This process was repeated until the cell number met the in vivo drug efficacy requirements. • c, The cultured cells were collected and counted with a fully automatic cell counter.
• a, According to the tumor growth, the tumor was measured on the 15th day after inoculation and the tumor size was calculated.

Chain of ABL1 WT kinase (P00519 whole entry): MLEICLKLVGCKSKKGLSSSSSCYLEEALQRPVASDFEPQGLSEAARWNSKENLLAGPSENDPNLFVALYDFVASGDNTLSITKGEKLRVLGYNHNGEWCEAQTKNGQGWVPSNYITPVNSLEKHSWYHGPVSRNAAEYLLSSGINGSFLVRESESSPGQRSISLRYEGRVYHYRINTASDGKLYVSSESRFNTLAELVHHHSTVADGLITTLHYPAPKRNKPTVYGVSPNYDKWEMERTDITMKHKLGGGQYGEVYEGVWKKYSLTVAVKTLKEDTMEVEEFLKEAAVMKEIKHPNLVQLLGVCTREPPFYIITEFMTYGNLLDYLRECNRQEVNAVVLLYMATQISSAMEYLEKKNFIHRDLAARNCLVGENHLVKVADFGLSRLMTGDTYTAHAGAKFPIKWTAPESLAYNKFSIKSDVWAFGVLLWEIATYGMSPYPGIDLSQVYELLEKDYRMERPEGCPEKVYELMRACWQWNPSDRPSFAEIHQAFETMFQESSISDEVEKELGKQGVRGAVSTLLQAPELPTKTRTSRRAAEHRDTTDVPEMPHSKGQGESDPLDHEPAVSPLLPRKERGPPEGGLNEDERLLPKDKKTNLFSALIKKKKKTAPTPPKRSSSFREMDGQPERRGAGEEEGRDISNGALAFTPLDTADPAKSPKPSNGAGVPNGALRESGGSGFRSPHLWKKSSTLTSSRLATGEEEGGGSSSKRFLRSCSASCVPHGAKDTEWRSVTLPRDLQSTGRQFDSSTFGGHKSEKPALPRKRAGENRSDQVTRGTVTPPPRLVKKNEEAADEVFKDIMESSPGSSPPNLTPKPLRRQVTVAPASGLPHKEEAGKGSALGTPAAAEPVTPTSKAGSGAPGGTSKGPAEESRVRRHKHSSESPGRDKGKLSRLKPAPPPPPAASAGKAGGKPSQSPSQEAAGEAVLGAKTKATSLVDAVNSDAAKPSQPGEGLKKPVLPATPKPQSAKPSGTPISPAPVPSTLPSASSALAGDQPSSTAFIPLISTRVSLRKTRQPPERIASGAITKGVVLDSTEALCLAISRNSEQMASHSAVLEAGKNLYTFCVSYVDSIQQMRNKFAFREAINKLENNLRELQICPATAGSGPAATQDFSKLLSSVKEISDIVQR

What is called IC50 is the concentration at which inhibition is half-maximal. The T/C is the result in the treated group divided by that in the control group, in per cent. In the case of `C[C@@H]1COC2NC=NC=C2c2cc(C(=O)Nc3ccc(OC(F)(F)Cl)cc3)cc3nc(C(F)F)n1c23.Cc1ccc(S(=O)(=O)O)cc1` (stereo partly drawn) [Example 1, (3R)-N-(4-(chlorodifluoromethoxy)phenyl)-2-(difluoromethyl)-3-methyl-3,4,5a,6-tetrahydro-5-oxa-1,2a,6,8-tetraazabenzo[4,5]cyclooctyl[1,2,3-cd]indene-11-carboxamide p-toluenesulfonate Salt], the concentration for half-maximal inhibition (IC50) came out at 0.43 nM at ABL1 WT kinase; 46.8 nM in the assay with Ba/F3 BCR-ABL1-T315I; 7.15 nM with Ba/F3 BCR-ABL1-E255V; 26.3 nM in the assay with Ba/F3 BCR-ABL1-E255K; 5.36 nM in the assay on Ba/F3 BCR-ABL1-G250E; 13 nM with K562. The results for the 50% inhibitory concentration (IC50) in the assay on Ku812, in the assay on KCL22-s and with KCL22-r were 4.13 nM, 2.99 nM and 14.6 nM, respectively. Further, the T/C came out at 7.05% in assay [1] (1.5 mg/kg bid), 0.69% in assay [1] (3 mg/kg bid), 3.98% in assay [1] (3 mg/kg qd) and 0.52% in assay [1] (7.5 mg/kg bid). Moreover, the TGI in [1] (1.5 mg/kg bid) worked out at 98.20%; in [1] (3 mg/kg bid), 187.08%; in assay [1] (3 mg/kg qd), 127.26%; in assay [1] (7.5 mg/kg bid), 190.62%. The Tumor volume in assay [1] (1.5 mg/kg bid) is recorded as 143 ± 35 mm^3; in assay [1] (3 mg/kg bid) it was 14 ± 5 mm^3; in assay [1] (3 mg/kg qd), 81 ± 19 mm^3; in assay [1] (7.5 mg/kg bid), 11 ± 7 mm^3.
Regarding `Cc1ccc(NC(=O)c2ccc(CN3CCN(C)CC3)cc2)cc1Nc1nccc(-c2cccnc2)n1` [Imatinib, reference compound], in assay [1] (75 mg/kg qd), the T/C is on record as 46.92% and the TGI is 56.03%.
